What was measured:
[1] = target: Beta-2 adrenergic receptor (Homo sapiens, UniProt P07550)
[2] = target: T1, Alpha-1A adrenergic receptor (Homo sapiens, UniProt P35348); type: functional, cell-based
T1 sequence (P35348 whole entry): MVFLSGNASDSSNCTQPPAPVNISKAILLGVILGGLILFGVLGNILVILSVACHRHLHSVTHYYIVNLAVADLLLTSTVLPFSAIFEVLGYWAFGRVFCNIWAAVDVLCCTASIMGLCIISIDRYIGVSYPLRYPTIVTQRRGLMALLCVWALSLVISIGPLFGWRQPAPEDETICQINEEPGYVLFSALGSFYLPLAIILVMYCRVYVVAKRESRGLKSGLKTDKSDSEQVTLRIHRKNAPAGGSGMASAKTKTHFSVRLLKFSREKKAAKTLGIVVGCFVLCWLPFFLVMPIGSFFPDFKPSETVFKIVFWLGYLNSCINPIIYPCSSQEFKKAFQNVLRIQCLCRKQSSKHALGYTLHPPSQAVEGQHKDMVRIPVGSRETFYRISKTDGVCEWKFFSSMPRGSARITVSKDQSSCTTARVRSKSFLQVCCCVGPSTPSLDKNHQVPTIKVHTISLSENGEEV

D(3) dopamine receptor = D(3) dopamine receptor (Homo sapiens, UniProt P35462)
[3] = target: T2, 5-hydroxytryptamine receptor 1A (Homo sapiens, UniProt P08908)
T2 sequence (P08908 whole entry): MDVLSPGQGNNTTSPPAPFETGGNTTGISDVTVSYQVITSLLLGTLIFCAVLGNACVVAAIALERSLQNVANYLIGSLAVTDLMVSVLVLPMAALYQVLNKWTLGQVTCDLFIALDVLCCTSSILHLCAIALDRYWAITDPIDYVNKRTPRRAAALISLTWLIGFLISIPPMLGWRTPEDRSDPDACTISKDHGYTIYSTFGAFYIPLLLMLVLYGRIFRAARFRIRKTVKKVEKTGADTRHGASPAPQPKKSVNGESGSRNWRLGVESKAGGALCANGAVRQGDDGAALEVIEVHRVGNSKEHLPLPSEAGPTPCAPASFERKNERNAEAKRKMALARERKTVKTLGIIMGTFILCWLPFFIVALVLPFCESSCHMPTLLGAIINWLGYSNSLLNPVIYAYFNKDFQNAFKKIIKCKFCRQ

Endothelin-1 receptor = target: T3, Endothelin-1 receptor (Homo sapiens, UniProt P25101)
T3 sequence (P25101 whole entry): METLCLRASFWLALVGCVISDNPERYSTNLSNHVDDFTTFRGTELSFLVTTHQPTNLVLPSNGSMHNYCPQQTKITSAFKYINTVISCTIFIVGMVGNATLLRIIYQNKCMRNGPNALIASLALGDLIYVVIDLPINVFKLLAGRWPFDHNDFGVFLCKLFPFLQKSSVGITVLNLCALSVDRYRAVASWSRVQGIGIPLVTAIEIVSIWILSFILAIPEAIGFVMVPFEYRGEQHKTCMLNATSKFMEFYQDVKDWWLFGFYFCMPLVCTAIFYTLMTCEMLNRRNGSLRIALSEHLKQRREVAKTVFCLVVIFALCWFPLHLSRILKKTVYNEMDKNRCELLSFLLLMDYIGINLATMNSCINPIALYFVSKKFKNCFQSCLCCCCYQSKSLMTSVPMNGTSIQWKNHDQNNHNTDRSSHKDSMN

[4] = target: T1, Alpha-1A adrenergic receptor
[5] = target: T1, Alpha-1A adrenergic receptor; type: functional, cell-based; remark: listed apart in the source
Progesterone receptor = target: T4, Progesterone receptor (Homo sapiens, UniProt P06401); type: functional
T4 sequence (P06401 whole entry): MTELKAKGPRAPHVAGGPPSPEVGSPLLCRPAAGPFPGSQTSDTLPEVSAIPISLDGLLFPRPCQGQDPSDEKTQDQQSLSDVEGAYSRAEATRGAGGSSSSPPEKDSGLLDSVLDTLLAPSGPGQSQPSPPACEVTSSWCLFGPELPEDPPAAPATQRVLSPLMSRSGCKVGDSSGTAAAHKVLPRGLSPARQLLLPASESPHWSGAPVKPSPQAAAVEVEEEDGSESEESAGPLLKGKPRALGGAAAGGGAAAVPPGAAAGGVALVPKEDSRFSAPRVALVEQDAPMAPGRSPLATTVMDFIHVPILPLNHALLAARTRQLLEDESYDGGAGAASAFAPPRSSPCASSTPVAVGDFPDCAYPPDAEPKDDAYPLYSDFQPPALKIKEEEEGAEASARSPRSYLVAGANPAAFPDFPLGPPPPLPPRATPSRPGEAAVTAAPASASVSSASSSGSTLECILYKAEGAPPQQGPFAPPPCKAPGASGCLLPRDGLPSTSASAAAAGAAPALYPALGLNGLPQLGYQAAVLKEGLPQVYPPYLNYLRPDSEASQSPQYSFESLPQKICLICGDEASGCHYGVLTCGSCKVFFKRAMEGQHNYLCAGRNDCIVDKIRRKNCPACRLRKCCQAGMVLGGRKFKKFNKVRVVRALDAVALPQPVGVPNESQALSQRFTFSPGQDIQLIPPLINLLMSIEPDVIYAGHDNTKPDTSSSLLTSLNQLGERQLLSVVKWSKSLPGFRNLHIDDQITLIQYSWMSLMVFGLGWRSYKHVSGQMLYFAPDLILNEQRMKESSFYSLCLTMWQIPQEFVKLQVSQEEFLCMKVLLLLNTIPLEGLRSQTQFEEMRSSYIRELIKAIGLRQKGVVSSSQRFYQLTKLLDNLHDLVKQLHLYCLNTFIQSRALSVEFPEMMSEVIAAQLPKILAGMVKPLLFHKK

[6] = target: Gamma-aminobutyric acid receptor subunit alpha-1 (Rattus norvegicus, UniProt P62813); type: functional
Mu-type opioid receptor = Mu-type opioid receptor (Homo sapiens, UniProt P35372)
Cannabinoid receptor 1 = Cannabinoid receptor 1 (Homo sapiens, UniProt P21554)
Melanocortin receptor 4 = Melanocortin receptor 4 (Homo sapiens, UniProt P32245)
[7] = target: 5-hydroxytryptamine receptor 2B (Homo sapiens, UniProt P41595)
Note: assay procedure not described here.

Cannabinoid receptor 1, sequence (P21554 whole entry): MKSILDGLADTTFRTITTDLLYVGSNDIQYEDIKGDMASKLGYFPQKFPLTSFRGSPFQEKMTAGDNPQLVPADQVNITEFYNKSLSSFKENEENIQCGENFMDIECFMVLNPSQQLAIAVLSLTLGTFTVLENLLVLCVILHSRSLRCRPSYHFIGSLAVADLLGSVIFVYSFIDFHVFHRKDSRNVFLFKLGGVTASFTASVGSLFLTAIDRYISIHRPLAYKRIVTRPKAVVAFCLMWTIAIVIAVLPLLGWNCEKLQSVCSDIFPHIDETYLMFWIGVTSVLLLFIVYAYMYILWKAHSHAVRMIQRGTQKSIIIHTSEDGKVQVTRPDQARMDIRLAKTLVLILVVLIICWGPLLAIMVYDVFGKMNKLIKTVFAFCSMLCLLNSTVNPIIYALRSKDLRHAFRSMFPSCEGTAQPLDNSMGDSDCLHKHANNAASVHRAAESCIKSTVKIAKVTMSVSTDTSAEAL
Beta-2 adrenergic receptor, sequence (P07550 whole entry): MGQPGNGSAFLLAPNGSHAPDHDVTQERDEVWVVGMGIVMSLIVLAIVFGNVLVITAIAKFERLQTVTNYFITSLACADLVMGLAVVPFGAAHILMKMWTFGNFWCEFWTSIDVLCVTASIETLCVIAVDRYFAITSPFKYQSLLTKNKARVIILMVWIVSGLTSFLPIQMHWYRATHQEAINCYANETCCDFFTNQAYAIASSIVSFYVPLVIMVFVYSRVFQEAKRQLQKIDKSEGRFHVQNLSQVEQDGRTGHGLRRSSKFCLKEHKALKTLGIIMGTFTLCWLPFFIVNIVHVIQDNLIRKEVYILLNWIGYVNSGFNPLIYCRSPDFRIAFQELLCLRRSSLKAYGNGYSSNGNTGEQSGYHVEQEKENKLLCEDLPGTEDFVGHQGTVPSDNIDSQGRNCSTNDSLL
Mu-type opioid receptor, sequence (P35372 whole entry): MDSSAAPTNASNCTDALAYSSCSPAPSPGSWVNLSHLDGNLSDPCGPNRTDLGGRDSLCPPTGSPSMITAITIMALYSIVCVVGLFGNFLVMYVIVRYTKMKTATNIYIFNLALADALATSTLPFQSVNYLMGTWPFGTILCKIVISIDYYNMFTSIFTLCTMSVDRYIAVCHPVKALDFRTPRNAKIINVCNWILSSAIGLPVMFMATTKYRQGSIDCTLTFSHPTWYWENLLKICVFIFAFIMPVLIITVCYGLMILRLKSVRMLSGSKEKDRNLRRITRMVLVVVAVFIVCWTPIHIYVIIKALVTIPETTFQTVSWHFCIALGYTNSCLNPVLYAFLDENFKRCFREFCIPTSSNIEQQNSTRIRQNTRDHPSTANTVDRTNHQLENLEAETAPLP
Melanocortin receptor 4, sequence (P32245 whole entry): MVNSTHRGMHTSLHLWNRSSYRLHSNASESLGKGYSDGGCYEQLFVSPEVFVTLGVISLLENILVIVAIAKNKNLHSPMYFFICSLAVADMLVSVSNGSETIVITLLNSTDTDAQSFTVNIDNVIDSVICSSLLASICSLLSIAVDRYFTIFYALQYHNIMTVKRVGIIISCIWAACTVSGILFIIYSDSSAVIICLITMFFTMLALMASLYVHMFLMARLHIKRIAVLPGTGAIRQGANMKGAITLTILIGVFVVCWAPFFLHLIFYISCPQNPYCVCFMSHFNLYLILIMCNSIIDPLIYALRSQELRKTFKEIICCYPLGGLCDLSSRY
Gamma-aminobutyric acid receptor subunit alpha-1, sequence (P62813 whole entry): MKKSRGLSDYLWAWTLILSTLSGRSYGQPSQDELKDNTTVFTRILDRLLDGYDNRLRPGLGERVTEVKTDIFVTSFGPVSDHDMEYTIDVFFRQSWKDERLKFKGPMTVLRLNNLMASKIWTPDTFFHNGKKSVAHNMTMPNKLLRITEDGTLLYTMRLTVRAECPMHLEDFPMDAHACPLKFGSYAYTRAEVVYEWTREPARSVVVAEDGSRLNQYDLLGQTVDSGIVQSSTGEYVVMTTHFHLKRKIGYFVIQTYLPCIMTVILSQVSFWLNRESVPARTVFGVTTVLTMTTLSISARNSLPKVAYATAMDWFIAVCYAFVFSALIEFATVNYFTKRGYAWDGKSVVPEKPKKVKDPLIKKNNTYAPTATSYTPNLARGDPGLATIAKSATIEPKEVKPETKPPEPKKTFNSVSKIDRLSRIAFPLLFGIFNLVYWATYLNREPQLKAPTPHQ
5-hydroxytryptamine receptor 2B, sequence (P41595 whole entry): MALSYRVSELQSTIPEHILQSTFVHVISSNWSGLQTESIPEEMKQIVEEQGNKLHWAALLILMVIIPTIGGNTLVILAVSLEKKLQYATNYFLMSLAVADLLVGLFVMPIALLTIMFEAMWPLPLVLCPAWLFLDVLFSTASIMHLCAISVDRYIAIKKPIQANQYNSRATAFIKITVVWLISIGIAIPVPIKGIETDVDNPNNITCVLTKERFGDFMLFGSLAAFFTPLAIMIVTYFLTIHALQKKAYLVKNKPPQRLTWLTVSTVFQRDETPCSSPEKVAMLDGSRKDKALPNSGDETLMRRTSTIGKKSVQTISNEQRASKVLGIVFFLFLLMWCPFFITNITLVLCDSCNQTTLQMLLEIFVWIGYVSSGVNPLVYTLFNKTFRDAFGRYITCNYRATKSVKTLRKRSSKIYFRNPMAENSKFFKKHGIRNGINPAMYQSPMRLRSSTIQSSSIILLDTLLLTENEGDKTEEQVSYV
D(3) dopamine receptor, sequence (P35462 whole entry): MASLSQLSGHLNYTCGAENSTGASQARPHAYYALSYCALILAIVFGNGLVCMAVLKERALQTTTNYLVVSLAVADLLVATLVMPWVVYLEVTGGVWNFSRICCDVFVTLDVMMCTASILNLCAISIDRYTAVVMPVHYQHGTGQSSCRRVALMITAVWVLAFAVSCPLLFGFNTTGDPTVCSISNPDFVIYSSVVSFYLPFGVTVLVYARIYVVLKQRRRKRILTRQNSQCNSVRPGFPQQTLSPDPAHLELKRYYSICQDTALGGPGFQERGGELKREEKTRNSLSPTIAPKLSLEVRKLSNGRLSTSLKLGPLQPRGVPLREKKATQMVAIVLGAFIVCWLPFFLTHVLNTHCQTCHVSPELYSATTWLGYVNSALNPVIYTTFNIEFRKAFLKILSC

| SMILES | AC50 [1] | AC50 [2] | AC50 (D(3) dopamine receptor) | AC50 [3] | AC50 (Endothelin-1 receptor) | AC50 [4] | AC50 [5] | AC50 (Progesterone receptor) | AC50 [6] | AC50 (Mu-type opioid receptor) | AC50 (Cannabinoid receptor 1) | AC50 (Melanocortin receptor 4) | AC50 [7] |
| --- | --- | --- | --- | --- | --- | --- | --- | --- | --- | --- | --- | --- | --- |
| COc1ccccc1N1CCN(CCCNc2cc(=O)n(C)c(=O)n2C)CC1 | 0.8 µM | 0.57 µM | 1.4 µM | 492 nM | > 30 µM | 0.0043 µM | > 30 µM | > 30 µM | > 30 µM | – | – | – | – |
| C#C[C@]1(O)CC[C@H]2[C@@H]3CCC4=Cc5oncc5C[C@]4(C)[C@H]3CC[C@@]21C [DANAZOL] | > 10 µM | > 30 µM | > 30 µM | – | – | > 10 µM | > 30 µM | 0.019 µM | > 10 µM | > 30 µM | > 10 µM | > 10 µM | – |
| CC1(C)O[C@@H]2C[C@H]3[C@@H]4CCC5=CC(=O)C=C[C@]5(C)[C@H]4[C@@H](O)C[C@]3(C)[C@]2(C(=O)CO)O1 [DESONIDE] | > 10 µM | > 30 µM | > 30 µM | – | – | > 10 µM | > 30 µM | 0.065 µM | > 10 µM | > 30 µM | > 10 µM | > 10 µM | – |
| CC(C)Cn1cnc2c(N)nc3ccccc3c21 [IMIQUIMOD] | > 10 µM | – | > 30 µM | > 10000 nM | – | 5.67 µM | – | > 10 µM | > 10 µM | > 30 µM | > 10 µM | > 10 µM | – |
| COc1ccc(CCN(C)CCCC(C#N)(c2cc(OC)c(OC)c(OC)c2)C(C)C)cc1OC (stereo not drawn) [GALLOPAMIL] | > 30 µM | > 30 µM | 3.3 µM | – | > 30 µM | – | > 30 µM | > 30 µM | > 30 µM | – | – | – | 81.9 nM |
| OC(CNCC(O)C1CCc2cc(F)ccc2O1)C1CCc2cc(F)ccc2O1 (stereo not drawn) [NEBIVOLOL] | 0.07 µM | 3.1 µM | 2 µM | 140 nM | > 30 µM | – | > 30 µM | > 30 µM | > 30 µM | – | – | – | – |
| CNS(=O)(=O)Cc1ccc2[nH]cc(CCN(C)C)c2c1 | > 10 µM | > 30 µM | > 30 µM | – | > 30 µM | > 30 µM | > 30 µM | – | > 30 µM | > 10 µM | – | > 30 µM | 14000 nM |
| CC=CC(=O)N(CC)c1ccccc1C | > 10 µM | > 30 µM | > 30 µM | – | – | > 10 µM | > 30 µM | > 10 µM | > 10 µM | > 30 µM | > 10 µM | > 10 µM | – |
| CCCCCCOc1ccccc1C(N)=O [EXALAMIDE] | > 30 µM | > 30 µM | > 30 µM | – | > 30 µM | – | > 30 µM | > 30 µM | > 30 µM | – | – | – | 270 nM |
| CCCC(C)C1(CC)C(=O)NC(=O)NC1=O (stereo not drawn) [PENTOBARBITAL] | > 10 µM | > 30 µM | > 30 µM | – | – | > 30 µM | > 30 µM | > 10 µM | – | > 30 µM | > 10 µM | > 10 µM | – |
| CC(Oc1c(Cl)cccc1Cl)C1=NCCN1 (stereo not drawn) [LOFEXIDINE] | > 30 µM | – | > 30 µM | 290 nM | > 30 µM | 0.803 µM | 0.0071 µM | > 30 µM | > 30 µM | – | > 30 µM | – | – |
| O=C(O)C[C@H](O)C[C@H](O)/C=C/c1c(C2CC2)nc2ccccc2c1-c1ccc(F)cc1 [PITAVASTATIN] | > 10 µM | > 30 µM | > 30 µM | – | – | > 10 µM | > 30 µM | > 30 µM | > 10 µM | > 30 µM | > 10 µM | > 10 µM | – |
| CC(=O)O[C@H]1CC[C@@]2(C)C(=CC[C@@H]3[C@@H]2CC[C@]2(C)C(c4cccnc4)=CC[C@@H]32)C1 [ABIRATERONE ACETATE] | > 10 µM | > 30 µM | > 30 µM | > 10000 nM | > 30 µM | > 10 µM | > 30 µM | > 30 µM | > 30 µM | > 30 µM | – | – | – |
| C=CCC1(CC(C)C)C(=O)NC(=O)NC1=O [BUTALBITAL] | > 10 µM | > 30 µM | > 30 µM | – | – | > 30 µM | > 30 µM | > 10 µM | > 10 µM | > 30 µM | > 10 µM | > 10 µM | – |
| CCCC(=O)O[C@]1(C(=O)CO)CC[C@H]2[C@@H]3CCC4=CC(=O)CC[C@]4(C)[C@H]3[C@@H](O)C[C@@]21C [HYDROCORTISONE BUTYRATE] | > 10 µM | – | > 30 µM | – | – | > 10 µM | – | 0.042 µM | > 10 µM | > 30 µM | > 10 µM | > 10 µM | – |
| O=C(O)CCCCCCCC(=O)O [AZELAIC ACID] | > 10 µM | – | > 30 µM | – | – | > 30 µM | – | > 10 µM | > 10 µM | > 30 µM | > 10 µM | > 10 µM | – |
| CN1CCC(=C2c3ccccc3CCc3sccc32)CC1 [PIZOTYLINE] | 5.8 µM | 3.32 µM | 4.3 µM | 338 nM | – | – | > 30 µM | – | > 10 µM | > 10 µM | 1.66 µM | > 30 µM | – |
| NCC[C@H](O)C(=O)N[C@@H]1C[C@H](N)[C@@H](O[C@H]2O[C@H](CN)[C@@H](O)[C@H](O)[C@H]2O)[C@H](O)[C@H]1O[C@H]1O[C@H](CO)[C@@H](O)[C@H](N)[C@H]1O [AMIKACIN] | > 10 µM | – | > 30 µM | – | – | > 10 µM | – | > 10 µM | > 10 µM | > 30 µM | > 10 µM | > 10 µM | – |
